{"source": "patent US5340801A", "about": "“Compounds having cholecystokinin and gastrin antagonistic properties” (Rhone-Poulenc Rorer Pharmaceuticals Inc., priority 1991, dated 1994)", "key": {"CCK-A receptor": {"molecular_target": "T1, CCK-A receptor (Rattus norvegicus, UniProt P30551)", "T1 construct": "from tissue; host or cells: rat (Sprague-Dawley) pancreas membrane homogenate", "T1 sequence (P30551 1-444)": "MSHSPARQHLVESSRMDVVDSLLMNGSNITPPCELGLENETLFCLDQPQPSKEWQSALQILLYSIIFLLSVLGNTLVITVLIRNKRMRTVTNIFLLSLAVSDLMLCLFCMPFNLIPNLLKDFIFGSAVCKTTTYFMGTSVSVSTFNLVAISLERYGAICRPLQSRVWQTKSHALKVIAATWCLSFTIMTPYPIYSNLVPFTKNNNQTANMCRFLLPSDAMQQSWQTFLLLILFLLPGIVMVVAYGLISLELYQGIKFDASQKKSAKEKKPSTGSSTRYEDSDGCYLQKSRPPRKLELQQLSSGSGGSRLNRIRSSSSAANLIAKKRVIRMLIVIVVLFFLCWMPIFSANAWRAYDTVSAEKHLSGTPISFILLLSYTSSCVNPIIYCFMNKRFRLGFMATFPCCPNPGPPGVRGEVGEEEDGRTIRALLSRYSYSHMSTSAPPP", "test": "CCK-A Receptor Binding Assay", "settings": "rat pancreas membranes, displacement of 3H-L-364,718 (0.2 nM), 37° C., 30 minutes; read-out: IC50 CCK-A (In Vitro Binding Data)", "description": "(§1) The effectiveness of the compounds of this invention as gastrin or cholecystokinin antagonists may be determined by the following pharmacologic tests which evaluate the gastrin and cholecystokinin antagonist activity of said compounds. The CCK-A Receptor Binding Assay and the Gastrin Receptor Binding Assay are standard test procedures. The CCK-A Receptor Binding Assay is essentially that of Chang, et al., \"Characterization of the Binding of [^3 H]-(±)-L-364,718: A New Potent, Nonpeptide Cholecystokinin Antagonist Radioligand Selective for Peripheral Receptors\", Molecular Pharmacology, 30: 212-217 (1986). The Gastrin Receptor Binding Assay is essentially that of Chang, et al., \"Characterization of [^3 H]Pentagastrin Binding in Guinea Pig Gastric Glands - An Alternative Convenient Ligand for Receptor Binding Assay\", Biochemical and Biophysical Research Communications, 134 (2): 895-899 (1986).\nCCK-A Receptor Binding Assay\nWash Buffer (for use with Brandel Cell Harvester):\n30 liters (L) of 50 mM Tris, pH 7.7: Dissolve 1 81.7 g Tris base in 4 L deionized water at room temperature. Adjust pH to 7.7 with 6N HCl and Q.S. to 30 L.\n50 mM Tris-Cl, 5 mM MgCl2, 5 mM dithiothreitol, 0.14 mg/ml bacitracin, and 2 mg/ml bovine serum albumin (BSA).\n1 liter of 5X stock buffer:\n30.28 g Tris base per 800 ml deionized water, 5.08 g MgCl2 ·6H20, pH to 7.7 at room temperature with 6N HCl and Q.S. to 1 liter, store at 4° C.\n250 ml working buffer (kept on ice):\n50 ml of 5X stock buffer 0.1928 g dithiothreitol (5 mM), 35 mg bacitracin (0.14 mg/ml), and 0.5 g BSA (2mg/ml).\nUnlabeled L-364,718 (nonpeptide ligand):\nUnlabeled L-364,718 (N-(2,3-dihydro-1-methyl-2-oxo-5-phenyl-1H-1,4-benzodiazepin-3-yl)-1H-indole-2-carboxamide) (300 nM final concentration) is used to define nonspecific binding. A […] solution is made in absolute ethanol and stored at -70° C. Aliquots are diluted 100-fold in the assay.\nA Sprague-Dawley rat is sacrificed by asphyxiation with carbon dioxide and the pancreas removed. The tissue is immersed in cold wash buffer and carefully trimmed of fat, connective tissue, blood vessels, blotted and weighed. The tissue is homogenized in a Sorvall SS-34 centrifuge tube in 50 volumes of wash buffer using a Polytron at setting 7 for 15 seconds. The tissue is centrifuged (Sorvall SS-34) at 19,000 rpm for 10 min. The supernatant is poured off and the pellet resuspended in sufficient buffer to obtain a concentration of 40 mg tissue wet weight/mi. Separate aliquots (2.3ml) are placed in each of 8 centrifuge tubes and centrifuged as before. The supernatants are poured off and the pellets stored at -70° C. Stored pellets are sufficient for the assay of 160 tubes and are stable for 1-2 months.\nDuring the assay the stored membranes are resuspended in 40 ml of assay buffer by scraping the pellet off the wall of the centrifuge tube and washing it into a teflon-glass homogenizer. Membranes are resuspended by 5 passes with the teflon pestle and the membranes stored on ice until ready for use.\nPreparation of Compounds:\nCompounds of the present invention to be tested are prepared in DMSO (dimethyl sulfoxide) or in assay buffer. The majority of compounds of the present invention active as CCK antagonists generally require DMSO for complete solubility. Approximately 2-3 mg of compound is weighed directly into a 13×100 mm test tube and sufficient DMSO added to obtain a working stock solution at a concentration 100 fold greater than the highest concentration being tested in the assay. A total of 10 μl of each concentration of drug is added into a final volume of 1 ml to yield a 100 fold dilution of the working stock solution. Control binding tubes (\"totals and nonspecifics\") are also treated with 10 μl DMSO.\n^3 H-L-364,718 is obtained from New England Nuclear (Cat. #971) and is used as supplied. […]"}, "gastrin receptor": {"molecular_target": "T2, gastrin receptor (Cavia porcellus, UniProt H0VZC5)", "T2 construct": "The fundic mucosa is gently scraped off the submucosa; from tissue; host or cells: guinea pig (Hartley) fundic mucosa gastric glands, collagenase-dispersed", "T2 sequence (H0VZC5 1-426)": "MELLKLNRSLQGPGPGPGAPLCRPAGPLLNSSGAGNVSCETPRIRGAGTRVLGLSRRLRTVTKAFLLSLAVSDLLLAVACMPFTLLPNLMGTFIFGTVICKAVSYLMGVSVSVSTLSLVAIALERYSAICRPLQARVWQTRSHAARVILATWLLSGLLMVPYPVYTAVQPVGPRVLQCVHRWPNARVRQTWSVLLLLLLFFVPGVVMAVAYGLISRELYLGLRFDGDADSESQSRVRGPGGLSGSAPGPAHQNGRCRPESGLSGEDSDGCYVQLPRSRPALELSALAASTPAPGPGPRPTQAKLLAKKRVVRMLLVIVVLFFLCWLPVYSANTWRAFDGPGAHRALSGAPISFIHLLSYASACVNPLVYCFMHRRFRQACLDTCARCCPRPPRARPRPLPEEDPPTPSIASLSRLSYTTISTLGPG", "test": "Gastrin Receptor Binding Assay", "settings": "guinea pig gastric glands, displacement of 125I-(Leu-15)-Gastrin, 25° C., 30 minutes; read-out: IC50 Gastrin (In Vitro Binding Data)", "description": "as §1\nGastrin Receptor Binding Assay\nPhosphate Buffered Saline (PBS): 8.743 g NaCl, 523 mg K2 HPO4 and 76.8 mg NaH2 PO4 is dissolved in 900 ml of deionized water, the pH of the solution is adjusted to 7.3 with 5N NaOH, then Q.S. to 1 L.\nBuffer A: Powdered Basal Medium Eagle (BME) containing Earle's Salts, L-glutamine and 25 mM HEPES without bicarbonate (Sigma Cat. number B 4391) sufficient to make 3 liters is stirred into 2.7 L of deionized water, […] sodium bicarbonate is added and the mixture stirred to give dissolution. The solution is then equilibrated with 95% O2 /5% CO2 gas followed by titration to a pH of 7.4 with NaOH, then Q.S. to 3 L.\nBuffer B: 18.75 mg of collagenase A and 25 mg of pH neutralized BSA is dissolved in 25 ml of Buffer A.\nBuffer C: 0.3 g of BSA is dissolved in 300 ml of Buffer A.\nBuffer D: 6.25 mg Bacitracin is dissolved in 25 ml of Buffer A.\nA guinea pig (Hartley Strain) weighing 150-200 grams, is sacrificed by CO2 asphyxiation and the stomach immediately excised, cut along the greater curvature, cleaned out and immediately immersed in a beaker containing cold PBS, pH 7.3, to insure thorough cleaning. The fundic mucosa is gently scraped off the submucosa and added to a preweighed 50 ml plastic centrifuge tube containing 30 ml of cold Buffer A. The weight of the plastic centrifuge tube containing the buffer is then subtracted from the combined weight of the mucosa and the buffer-containing tube to give the weight of the mucosa. The weight of the mucosa thus determined is recorded for later calculations. The mucosa is then washed twice in Buffer A. After the final wash, the tissue is minced and is placed in a 100-ml glass beaker containing about 1.0 ml of Buffer A, and washed twice again by repeated centrifugation at 50Xg for 5 minutes each and aspiration of supernatant. The washed tissue fragments are then added to a glass Erlenmeyer flask containing 25 ml of Buffer B and incubated in a Dubnoff shaking water bath at 37° C. for 30 minutes in a 95% O2 /5% CO2 atmosphere. After the incubation, the digested tissue fragments in the Collegenase-buffer solution are triturated, filtered through a 200-micron nylon mesh and centrifuged at 50Xg for 5 minutes. The supernatant is aspirated and discarded, the tissue washed 2X in Buffer C, resuspended in same buffer, incubated in a 37° C water bath in an atmosphere of 95% O2 /5% CO2 for 5 minutes, and centrifuged. The pelleted glands are suspended in Buffer D at a desired concentration of 2×10^5 glands/ml to use in the receptor binding assay.\nAssay Buffer: Buffer A as above\n^125 l-(Leu-15)-Gastrin: 100 microcurie dissolved in 2.0 ml of Buffer A to make 50 microcurie/ml; stored in 50 μl aliquots under Argon at -70° C.\n^125 I-(15-methionine)-Human Gastrin: 50 microcurie/ml in deionized water, stored in 50 μl aliquots as above.\n(Leu 15)-Gastrin 17:5.2 mg of (Leu-15)- Gastrin is dissolved in 10 ml of Buffer A and stored in 30 μl aliquots. At the time of assay a 1:10 dilution is made and 10 μl/assay tube is used. […]"}}, "note": "*1 amine or outer side, *2 acyl side, *3 side chain or, on linkers, in order; H or OH if unused. Where a SMILES comes first, the peptide text is derived from it. [ ]: non-standard residue; d: D form. The star is where a group is joined. Hyp = O=C(O)[C@@H]1C[C@@H](O)CN1; βNA = c1ccc2cc(N*)ccc2c1; 2Abz = Nc1ccccc1C(=O)O; CO = O=C([*:1])[*:2]; Bn = c1ccc(C*)cc1", "data": [{"smiles": "Cc1cccc(NC(=O)N2C[C@H](OCc3ccccc3)C[C@H]2C(=O)N2CCc3c([nH]c4ccccc34)C2)c1", "note": "[Example 1, 2-[(N-(3-methyl)phenylcarbamoyl-4(R)-benzyloxy)-L-prolyl]-1,2,3,4-tetrahydro-9H-pyrido[3,4-b]indole]", "values": [{"measurement": "IC50", "setting": "CCK-A receptor", "value": 9, "unit": "µM"}, {"measurement": "IC50", "setting": "gastrin receptor", "value": "> 300", "unit": "µM"}]}, {"smiles": "COc1ccc(NC(=O)N2C[C@H](OCc3ccccc3)C[C@H]2C(=O)N2CCc3c([nH]c4ccccc34)C2)cc1", "note": "[Example 2, 2-[(N-(4-methoxy)phenylcarbamoyl-4(R)-benzyloxy)-L-prolyl]-1,2,3,4-tetrahydro-9H-pyrido[3,4-b]indole]", "values": [{"measurement": "IC50", "setting": "CCK-A receptor", "value": 15, "unit": "µM"}, {"measurement": "IC50", "setting": "gastrin receptor", "value": 120, "unit": "µM"}]}, {"smiles": "Cc1cccc(NC(=O)N2c3ccccc3C[C@H]2C(=O)N2CCc3c([nH]c4ccccc34)C2)c1", "note": "[Example 3, 2-[(N-(3-methyl)phenylcarbamoylindolin-2(S)-yl)carbonyl]-1,2,3,4-tetrahydro-9H-pyrido[3,4-b]indole]", "values": [{"measurement": "IC50", "setting": "CCK-A receptor", "value": 30, "unit": "µM"}, {"measurement": "IC50", "setting": "gastrin receptor", "value": "> 300", "unit": "µM"}]}, {"smiles": "O=C([C@H]1CCCN1C(=O)Nc1ccc2ccccc2c1)N1CCc2c([nH]c3ccccc23)C1", "note": "[Example 4, 2-(N-naphth-2-ylcarbamoyl-D-prolyl)-1,2,3,4-tetrahydro-9H-pyrido[3,4-b]indole]", "values": [{"measurement": "IC50", "setting": "CCK-A receptor", "value": 7.3, "unit": "µM"}, {"measurement": "IC50", "setting": "gastrin receptor", "value": 10.3, "unit": "µM"}]}, {"smiles": "Cc1cccc(NC(=O)N2CCC[C@@H]2C(=O)N2CCc3c([nH]c4ccccc34)C2)c1", "note": "[Example 5, 2-[N-(3-methyl)phenylcarbamoyl-D-prolyl]-1,2,3,4-tetrahydro-9H-pyrido[3,4-b]indole]", "values": [{"measurement": "IC50", "setting": "CCK-A receptor", "value": 37, "unit": "µM"}, {"measurement": "IC50", "setting": "gastrin receptor", "value": "> 30", "unit": "µM"}]}, {"smiles": "Cc1cccc(NC(=O)N2CCC[C@H]2C(=O)N2CCc3c([nH]c4ccccc34)C2)c1", "note": "[Example 6, 2-[N-(3-methyl)phenylcarbamoyl-L-prolyl]-1,2,3,4-tetrahydro-9H-pyrido[3,4-b]indole]", "values": [{"measurement": "IC50", "setting": "CCK-A receptor", "value": 37, "unit": "µM"}, {"measurement": "IC50", "setting": "gastrin receptor", "value": "> 30", "unit": "µM"}]}, {"smiles": "Cc1cccc(NC(=O)N2C[C@H](OCc3ccccc3)C[C@H]2C(=O)N[C@H](CC(C)C)C(=O)N[C@H](CC(=O)O)C(N)=O)c1", "note": "[Example 7]", "values": [{"measurement": "IC50", "setting": "CCK-A receptor", "value": 3, "unit": "µM"}, {"measurement": "IC50", "setting": "gastrin receptor", "value": 2.6, "unit": "µM"}]}, {"smiles": "O=C(O)c1ccccc1NC(=O)[C@@H]1CCCN1C(=O)[C@@H]1C[C@@H](OCc2ccccc2)CN1C(=O)Nc1ccc2ccccc2c1", "note": "[Example 9, 2-[(N-(4(R)-benzyloxy-N-naphth-2-ylcarbamoyl-L-prolyl)-L-prolyl)amino]benzoic acid] ({βNA-CO}-[Hyp](Bn)-Pro-[2Abz]-OH)", "values": [{"measurement": "IC50", "setting": "gastrin receptor", "value": 0.13, "unit": "µM"}]}, {"smiles": "O=C(O)c1ccccc1NC(=O)[C@@H]1CCCN1C(=O)[C@@H]1C[C@@H](OCc2ccccc2)CN1C(=O)Nc1cccc2ccccc12", "note": "[Example 11, 2-[(N-(4(R)benzyloxy-N-naphth-1-ylcarbamoyl-L-prolyl)-L-prolyl)amino]benzoic acid]", "values": [{"measurement": "IC50", "setting": "gastrin receptor", "value": 0.2, "unit": "µM"}]}]}
